The results in this text go back to ChEMBL document CHEMBL1136343, “Naringenin derivatives as anti-atherogenic agents” (Bioorg Med Chem Lett, 2003).

Common to all, as to type: functional, organism-based
The test system of assay [1] is Oryctolagus cuniculus. The assay can be described thus: Plasma HDL cholesterol level was analyzed after administration of 0.1%, wt/wt diet in high cholesterol-fed rabbits at 0 weeks.
Assay [2] concerns Oryctolagus cuniculus. The assay can be described thus: Plasma HDL cholesterol level was analyzed after administration of 0.1%, wt/wt diet in high cholesterol-fed rabbits after 8 weeks.
For assay [3], the system named is Oryctolagus cuniculus. The assay can be described thus: Total plasma cholesterol was analyzed after administration of 0.1%, wt/wt diet in high cholesterol-fed rabbits at 0 weeks.
The test system of assay [4] is Oryctolagus cuniculus. The assay can be described thus: Plasma triglyceride level was analyzed after administration of 0.1%, wt/wt diet in high cholesterol-fed rabbits after 0 weeks.
Assay [5] deals with Oryctolagus cuniculus. The assay can be described thus: Total plasma cholesterol was analyzed after administration of 0.1%, wt/wt diet in high cholesterol-fed rabbits after 8 weeks.
The subject of assay [6] is Oryctolagus cuniculus. The assay can be described thus: Plasma triglyceride level was analyzed after administration of 0.1%, wt/wt diet in high cholesterol-fed rabbits after 8 weeks.

For the compound `CCCCCCCC/C=C/CCCCCCCC(=O)Oc1cc(O)c2c(c1)OC(c1ccc(O)cc1)CC2=O` (configuration not stated), the Plasma lipid level in assay [1] came out at 31 mg/dL; in assay [2], 78 mg/dL; in assay [3], 51 mg/dL; in assay [4], 51 mg/dL; in assay [5], 1040 mg/dL; in assay [6], 105 mg/dL.
Take `CCCCCCCCCCCCCCCCC(=O)Oc1cc(O)c2c(c1)OC(c1ccc(O)cc1)CC2=O` (configuration not stated): the Plasma lipid level is 34 mg/dL in assay [1]; 93 mg/dL in assay [2]; 53 mg/dL in assay [3]; 50 mg/dL in assay [4]; 1060 mg/dL in assay [5]; 85 mg/dL in assay [6].
